Assay results published in article PMC6321019 (International Journal of Molecular Sciences, 2018).
Counter-ions that a name gives are not always drawn.

Key:
[1] = biological target: T1, hemagglutinin (HA)-tagged wild-type human histamine H1 receptor (HA-WT) (Homo sapiens, UniProt P35367); assay: [3H]mepyramine displacement binding to membranes of CHO cells expressing HA-WT; settings: van 't Hoff plots (37, 25, 14 °C); ∆Hº vs -T∆Sº
T1 construct: membrane preparations

[2] = biological target: T2, HA-tagged Lys191 mutant of human histamine H1 receptor to alanine (HA-K191A) (Homo sapiens, UniProt P35367, K191A); assay: [3H]mepyramine displacement binding to membranes of CHO cells expressing HA-K191A; settings: HA-K191A vs HA-WT; for reduction of affinity by mutation of Lys191 to alanine (times): 25 °C; for Change in Entropy-Dependent Hydrophobic Binding Forces by the mutation of Lys191 to alanine: -T∆Sº from van 't Hoff plots (37, 25, 14 °C); for Change in Enthalpy-Dependent Electrostatic Binding Forces by the mutation of Lys191 to alanine: ∆Hº from van 't Hoff plots (37, 25, 14 °C)
T2 construct: expressed in transfected cells; host or cells: CHO cells; membrane preparations
T2 sequence (P35367 whole entry K191A): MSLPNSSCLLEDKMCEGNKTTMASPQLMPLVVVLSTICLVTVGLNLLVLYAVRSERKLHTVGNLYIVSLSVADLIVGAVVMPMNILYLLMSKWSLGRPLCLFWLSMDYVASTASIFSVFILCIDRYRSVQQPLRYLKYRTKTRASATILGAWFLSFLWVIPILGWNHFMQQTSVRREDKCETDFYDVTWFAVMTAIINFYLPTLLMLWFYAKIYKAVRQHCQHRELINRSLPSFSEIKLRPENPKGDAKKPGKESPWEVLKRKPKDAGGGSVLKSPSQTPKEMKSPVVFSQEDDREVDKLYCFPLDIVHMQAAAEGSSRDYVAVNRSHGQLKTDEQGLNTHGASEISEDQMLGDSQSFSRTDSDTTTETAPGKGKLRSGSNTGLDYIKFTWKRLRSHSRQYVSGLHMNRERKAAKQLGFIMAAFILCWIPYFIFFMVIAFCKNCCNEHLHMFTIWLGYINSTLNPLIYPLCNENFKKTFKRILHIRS

T1 sequence (P35367 whole entry): as the sequence (P35367 whole entry K191A) above, with A191K counted along it

## O=C(O)COCCN1CCN([C@H](c2ccccc2)c2ccc(Cl)cc2)CC1 [levocetirizine, Levocetirizine dihydrochloride]
[1]
  thermodynamic driving force of binding (source of negative ∆Gº) to HA-WT: caused by both enthalpy (∆Hº) and entropy (-T∆Sº)
[2]
  reduction of affinity by mutation of Lys191 to alanine (times): approximately 3.6 times
  Change in Binding Affinity by the mutation of Lys191 to alanine: ↓**
  Change in Entropy-Dependent Hydrophobic Binding Forces by the mutation of Lys191 to alanine: ↓*
  Change in Enthalpy-Dependent Electrostatic Binding Forces by the mutation of Lys191 to alanine: ↑*
[2]; van 't Hoff plots
  enthalpy-dependent electrostatic binding forces, change by mutation of Lys191 to alanine (in words): significantly increased
  entropy-dependent hydrophobic binding forces, change by mutation of Lys191 to alanine (in words): significantly reduced

## O=C(O)COCCN1CCN([C@@H](c2ccccc2)c2ccc(Cl)cc2)CC1 [(S)-cetirizine, (S)-cetirizine dihydrochloride]
[1]
  thermodynamic driving force of binding (source of negative ∆Gº) to HA-WT: predominantly achieved by enthalpy (∆Hº)
[2]
  reduction of affinity by mutation of Lys191 to alanine (times): ~6.2 times
  Change in Binding Affinity by the mutation of Lys191 to alanine: ↓**
  Change in Entropy-Dependent Hydrophobic Binding Forces by the mutation of Lys191 to alanine: ↑**
  Change in Enthalpy-Dependent Electrostatic Binding Forces by the mutation of Lys191 to alanine: ↓**
[2]; van 't Hoff plots
  enthalpy-dependent electrostatic binding forces, change by mutation of Lys191 to alanine (in words): significantly reduced
